Assay results reported in US20150011528A1, “PHENYLIMIDE-CONTAINING BENZOTHIAZOLE DERIVATIVE OF ITS SALT AND PHARMACEUTICAL COMPOSITION COMPRISING THE SAME” (YUHAN CORPORATION, priority 2011, published 2015).

These compounds were tested on A549 cells (assay: Cell Migration Assay (transwell, laminin)). Conditions: Homo sapiens, laminin 10 μg/mL in lower well, test compounds 0.39˜100 μM, 6 hours at 37° C.
Assay type: cell-based
Description: Cell migration was measured with a 24-well transwell having a polycarbonate membrane (8.0 μm pore size, Costar) at the bottom of the upper chamber. Each lower well was treated with laminin (10 μg/mL) and test compounds (0.39˜100 μM) along with a serum-free RPMI1640 medium. A549 cells (Korean Cell Line Bank) were suspended in a serum-free RPMI1640 medium at a concentration of 1×10^6 cells/mL and then the test compounds were added thereto at the indicated concentrations. Each resulting solution (100 μL) was added to the upper chamber. The cells were cultured at 37° C. for 6 hours in a CO2 incubator. The upper chamber was taken out and then the cells were fixed with PBS containing 70% methyl alcohol for 10 minutes, followed by washing with PBS twice. The cells were stained with hematoxylin (Sigma) for 10 minutes and then washed with distilled water. The non-migrated cells were removed from the upper portion of the polycarbonate membrane with a cotton swab. The membranes were excised and separated from the chamber, and then mounted to a slide using a gel mount reagent (Biomeda, USA). The migrated cells (attached to the lower face of the membrane) were counted at three randomly selected sites under a microscope (×20). The cell counting was performed with the Image J program. From the counted cell numbers, each IC50 value was calculated by non-linear regression curve fit using the “GraphPad Prism” program.
The cells are pulled by laminin residing in the lower chamber and then passed through the polycarbonate membrane, so as to attach to the lower face of the membrane.
`CC(C(=O)O)n1c(=NC(=O)c2ccc(C(F)(F)F)cc2)sc2ccccc21` (stereo not drawn) [Example 186, 2-(2-(4-(trifluoromethyl)benzoylimino)benzo[d]thiazol-3(2H)-yl)propionic acid] was tested, and the IC50 was 101 µM. Work on `O=C(O)Cn1c(=NC(=O)c2cccc(Cl)c2)sc2ccccc21` [Example 123, 2-[2-(3-chlorobenzoylimino)benzo[d]thiazol-3(2H)-yl]acetic acid] yielded an IC50 of 40.1 µM. `CC(C(=O)O)n1c(=NC(=O)c2cccc(Cl)c2)sc2c(F)cccc21` (stereo not drawn) [Example 373, 2-(2-((3-chlorobenzoyl)imino)-7-fluorobenzo[d]thiazol-3(2H)-yl)propionic acid] was tested, and the IC50 was 92.4 µM. `CC(C(=O)O)n1c2c(sc1=NC(=O)c1cccc(C(F)(F)F)c1)CCCC2` (stereo not drawn) [Example 295, 2-(2-(3-(trifluoromethyl)benzoylimino)-4,5,6,7-tetrahydrobenzo[d]thiazol-3(2H)-yl)propionic acid] was tested, and the IC50 was 60 µM. With `CCC(C(=O)O)n1c(=NC(=O)c2ccc(F)c(Cl)c2)sc2cc(F)c(F)cc21` (stereo not drawn) [Example 467, 2-(2-((3-chloro-4-fluorobenzoyl)imino)-5,6-difluorobenzo[d]thiazol-3(2H)-yl)butanoic acid] the IC50 was 19 µM. In the case of `CCC(C(=O)O)n1c(=NC(=O)c2ccc(C)cc2)sc2cc(C)c(F)cc21` (stereo not drawn) [Example 16, 2-{5-fluoro-6-methyl-2-[(4-methylbenzoyl)imino]benzo[d]thiazol-3(2H)-yl}butanoic acid], the IC50 is reported as 11.8 µM. Work on `Cc1ccc(C(=O)N=c2sc3c(C)cccc3n2C(C)C(=O)O)cc1` (stereo not drawn) [Example 103, 2-[7-methyl-2-(4-methylbenzoylimino)benzo[d]thiazol-3(2H)-yl]propionic acid] yielded an IC50 of 28 µM. Compound `Cc1ccc(C(=O)N=c2sc3c(F)cc(F)cc3n2C(C)C(=O)O)cc1` (stereo not drawn) [Example 455, 2-(5,7-difluoro-2-((4-methylbenzoyl)imino)benzo[d]thiazol-3(2H)-yl)propionic acid] has an IC50 of 80 µM. `CCC(C(=O)O)n1c(=NC(=O)c2ccc(C)cc2)sc2ccc(C)cc21` (stereo not drawn) [Example 100, 2-[5-methyl-2-(4-methylbenzoylimino)benzo[d]thiazol-3(2H)-yl]butanoic acid] gave an IC50 of 43 µM. Work on `CCC(C(=O)O)n1c(=NC(=O)c2ccc(OC)cc2)sc2ccccc21` (stereo not drawn) [Example 60, 2-[2-(4-methoxybenzoylimino)benzo[d]thiazol-3(2H)-yl]butanoic acid] yielded an IC50 of 26.9 µM. With `CCCCCCC(C(=O)O)n1c(=NC(=O)c2ccc(C)cc2)sc2ccccc21` (stereo not drawn) [Example 147, 2-[2-(4-methylbenzoylimino)benzo[d]thiazol-3(2H)-yl]octanoic acid] the IC50 was 5.7 µM. `CCC(C(=O)O)n1c(=NC(=O)c2cccc(Cl)c2)sc2c(F)c(F)c(F)cc21` (stereo not drawn) [Example 417, 2-(2-((3-chlorobenzoyl)imino)-5,6,7-trifluorobenzo[d]thiazol-3(2H)-yl)butanoic acid] showed an IC50 of 22 µM. `CCC(C(=O)O)n1c(=NC(=O)c2cc(Cl)cc(Cl)c2)sc2cc(F)c(F)cc21` (stereo not drawn) [Example 468, 2-(2-((3,5-dichlorobenzoyl)imino)-5,6-difluorobenzo[d]thiazol-3(2H)-yl)butanoic acid] showed an IC50 of 41 µM. Work on `CC(C(=O)O)n1c(=NC(=O)c2cccc(Cl)c2)sc2c(C(F)(F)F)cccc21` (stereo not drawn) [Example 270, 2-(2-(3-chlorobenzoylimino)-7-(trifluoromethyl)benzo[d]thiazol-3(2H)-yl)propionic acid] yielded an IC50 of 1 µM. In the case of `CCC(C(=O)O)n1c(=NC(=O)c2cccc(Cl)c2)sc2cc3c(cc21)OCO3` (stereo not drawn) [Example 240, 2-(6-((3-chlorobenzoyl)imino)-[1,3]dioxolo[4′,5′:4,5]benzo[1,2-d]thiazol-7(6H)-yl)butanoic acid], the IC50 is reported as 16 µM. Compound `CCC(C(=O)O)n1c(=NC(=O)c2ccc(C)cc2)sc2cc(OC(F)(F)F)ccc21` (stereo not drawn) [Example 14, 2-{2-[(4-methylbenzoyl)imino]-6-(trifluoromethoxy)benzo[d]thiazol-3(2H)-yl]butanoic acid] has an IC50 of 21.5 µM. With `CCC(C(=O)O)n1c(=NC(=O)c2cccc(Cl)c2)sc2c(F)cc(F)cc21` (stereo not drawn) [Example 462, 2-(2-((3-chlorobenzoyl)imino)-5,7-difluorobenzo[d]thiazol-3(2H)-yl)butanoic acid] the IC50 was 43 µM. In the case of `Cc1cc2sc(=NC(=O)c3cccc(Cl)c3)n(C(C)C(=O)O)c2cc1C` (stereo not drawn) [Example 212, 2-(2-((3-chlorobenzoyl)imino)-5,6-dimethylbenzo[d]thiazol-3(2H)-yl)propionic acid], the IC50 is reported as 33 µM. `CCC(C(=O)O)n1c(=NC(=O)c2cccc(Cl)c2)sc2cc(C(F)(F)F)ccc21` (stereo not drawn) [Example 173, 2-(2-((3-chlorobenzoyl)imino)-6-(trifluoromethyl)benzo[d]thiazol-3(2H)-yl)butanoic acid] was tested, and the IC50 was 16.5 µM. For `CCC(C(=O)O)n1c(=NC(=O)c2cccc(Br)c2)sc2ccccc21` (stereo not drawn) [Example 83, 2-[2-(3-bromobenzoylimino)benzo[d]thiazol-3(2H)-yl]butanoic acid], the IC50 was 12.3 µM. With `CCC(C(=O)O)n1c(=NC(=O)c2ccc(C)cc2)sc2cc([N+](=O)[O-])ccc21` (stereo not drawn) [Example 23, 2-{2-[(4-methylbenzoyl)imino]-6-nitrobenzo[d]thiazol-3(2H)-yl}butanoic acid] the IC50 was 23.7 µM. `Cc1cccc2c1sc(=NC(=O)c1cccc(C(F)(F)F)c1)n2C(C)C(=O)O` (stereo not drawn) [Example 314, 2-(7-methyl-2-(3-(trifluoromethyl)benzoylimino)benzo[d]thiazol-3(2H)-yl)propionic acid] was tested, and the IC50 was 46 µM. For `CCC(C(=O)O)n1c(=NC(=O)c2ccc(C)cc2)sc2cc(C)c(C)cc21` (stereo not drawn) [Example 6, 2-{5,6-dimethyl-2-[(4-methylbenzoyl)imino]benzo[d]thiazol-3(2H)-yl}butanoic acid], the IC50 was 26.5 µM. Work on `Cc1ccc2c(c1)sc(=NC(=O)c1cccc(C(F)(F)F)c1)n2C(C)C(=O)O` (stereo not drawn) [Example 195, 2-(6-methyl-2-((3-(trifluoromethyl)benzoyl)imino)benzo[d]thiazol-3(2H)-yl)propionic acid] yielded an IC50 of 87 µM. `CCC(C(=O)O)n1c(=NC(=O)c2ccc(C)cc2)sc2ccc(Cl)cc21` (stereo not drawn) [Example 105, 2-[5-chloro-2-(4-methylbenzoylimino)benzo[d]thiazol-3(2H)-yl]butanoic acid] gave an IC50 of 19 µM. `CC(C(=O)O)n1c(=NC(=O)c2cccc(C(F)(F)F)c2)sc2c(F)c(F)c(F)cc21` (stereo not drawn) [Example 380, 2-(5,6,7-trifluoro-2-((3-(trifluoromethyl)benzoyl)imino)benzo[d]thiazol-3(2H)-yl)propionic acid] was tested, and the IC50 was 36.2 µM. Compound `CC(C(=O)O)n1c(=NC(=O)c2cccc(C(F)(F)F)c2)sc2c(F)cccc21` (stereo not drawn) [Example 346, 2-(7-fluoro-2-((3-(trifluoromethyl)benzoyl)imino)benzo[d]thiazol-3(2H)-yl)propionic acid] has an IC50 of 124 µM. With `COc1ccc2c(sc(=NC(=O)c3cccc(Cl)c3)n2CC(=O)O)c1F` [Example 396, 2-(2-((3-chlorobenzoyl)imino)-7-fluoro-6-methoxybenzo[d]thiazol-3(2H)-yl)acetic acid] the IC50 was 43 µM. `COc1ccc2c(c1)sc(=NC(=O)c1cccc(C(F)(F)F)c1)n2C(C)C(=O)O` (stereo not drawn) [Example 189, 2-(6-methoxy-2-((3-(trifluoromethyl)benzoyl)imino)benzo[d]thiazol-3(2H)-yl)propionic acid] gave an IC50 of 87 µM. Work on `COc1cccc2sc(=NC(=O)c3cccc(Cl)c3)n(C(C)C(=O)O)c12` (stereo not drawn) [Example 282, 2-(2-(3-chlorobenzoylimino)-4-methoxybenzo[d]thiazol-3(2H)-yl)propionic acid] yielded an IC50 of 25 µM. Work on `CCC(C(=O)O)n1c(=NC(=O)c2ccc(C)cc2)sc2ccc(F)cc21` (stereo not drawn) [Example 90, 2-[5-fluoro-2-(4-methylbenzoylimino)benzo[d]thiazol-3(2H)-yl]butanoic acid] yielded an IC50 of 31.6 µM. `CCOc1ccc2c(c1)sc(=NC(=O)c1cccc(C(F)(F)F)c1)n2C(C)C(=O)O` (stereo not drawn) [Example 192, 2-(6-ethoxy-2-((3-(trifluoromethyl)benzoyl)imino)benzo[d]thiazol-3(2H)-yl)propionic acid] gave an IC50 of 33 µM. `O=C(O)Cn1c(=NC(=O)c2cccc(Cl)c2)sc2c(Cl)cccc21` [Example 358, 2-(7-chloro-2-((3-chlorobenzoyl)imino)benzo[d]thiazol-3(2H)-yl)acetic acid] was tested, and the IC50 was 29.4 µM. `O=C(O)Cn1c(=NC(=O)c2cccc(Cl)c2)sc2c(F)cccc21` [Example 347, 2-(2-((3-chlorobenzoyl)imino)-7-fluorobenzo[d]thiazol-3(2H)-yl)acetic acid] showed an IC50 of 109 µM. `CCOc1ccc2c(sc(=NC(=O)c3cccc(Cl)c3)n2C(CC)C(=O)O)c1F` (stereo not drawn) [Example 427, 2-(2-((3-chlorobenzoyl)imino)-6-ethoxy-7-fluorobenzo[d]thiazol-3(2H)-yl)butanoic acid] showed an IC50 of 18 µM. For `COc1ccc2c(c1)sc(=NC(=O)c1cccc(Cl)c1)n2C(C)C(=O)O` (stereo not drawn) [Example 53, 2-{2-[(3-chlorobenzoyl)imino]-6-methoxybenzo[d]thiazol-3(2H)-yl}propionic acid], the IC50 was 59 µM.

Same assay, conditions: laminin 10 μg/mL in lower well, test compounds 0.39˜100 μM, 6 hours at 37° C.
`Cc1ccc(C(=O)N=c2sc3ccccc3n2C(C(=O)O)c2ccccc2)cc1` (stereo not drawn) [Example 152] showed an IC50 of 22.7 µM. For `CCC(C(=O)O)n1c(=NC(=O)c2ccc(F)c(C(F)(F)F)c2)sc2cc(F)c(F)cc21` (stereo not drawn) [Example 471], the IC50 was 32 µM. `CCC(C(=O)O)n1c(=NC(=O)c2cc(F)cc(C(F)(F)F)c2)sc2cc(F)c(F)cc21` (stereo not drawn) [Example 469] showed an IC50 of 66 µM.
